Assay results: publication PMC7096397, “Improving the drug-likeness of inspiring natural products - evaluation of the antiparasitic activity against Trypanosoma cruzi through semi-synthetic and simplified analogues of licarin A” (Scientific Reports, 2020)

Tests used:
[1] = test system: T. cruzi intracellular amastigotes; test: Anti-amastigote assay in infected peritoneal macrophages (infection index); type: cell-based, Trypanosoma cruzi; conditions: Trypanosoma cruzi, Peritoneal macrophage, in Mus musculus; intracellular amastigotes in BALB/c peritoneal macrophages, 48 h; read-out: IC50 Ama
Protocol: (§1) The cells and parasites were kept at 37 °C in a humidified atmosphere containing 5% CO2.
The cells were plated on a 16-well chamber slide – NUNC (Thermo Fisher Scientific) at 1 × 10^5 cells/well and incubated for 24 h at 37 °C in a 5% CO2 humidified incubator. […] Tested compounds were subsequently incubated with infected macrophages for 48 h at 37 °C (5% CO2 humidified incubator) in different nontoxic concentrations. Benznidazole was used as standard drug. At the end of the assay, slides were fixed with MeOH and stained with Giemsa, counted under a light microscope (EVOS M5000, Thermo, USA) and IC50 values were determined by the infection index.
(§2) IC50 and CC50 values were calculated using a sigmoid dose-response curves in Graph–Pad Prism 5.0 software (GraphPad Software - San Diego, CA, USA). For the mechanism of action studies one-way ANOVA (Turkey’s Multiple Comparison test) was used for significance (p < 0.05). The assays were repeated at least twice and the samples were tested in duplicate.

[2] = test system: T. cruzi (Y strain) trypomastigotes; test: Anti-trypomastigote assay (resazurin viability); type: cell-based, Trypanosoma cruzi; conditions: Trypanosoma cruzi; T. cruzi trypomastigotes, 24 h incubation, resazurin; read-out: IC50 trypo
Protocol: as §1
Benznidazole was used as the standard drug. The optical density was determined in FilterMax F5 (Molecular Devices) at 570 nm[38].
as §2

[3] = PAMPA intestinal model (GIT); type: in vitro ADME
Protocol: Intestinal permeability of tested compounds was estimated applying the PAMPA model previously developed and validated. Briefly, stock solutions were prepared in dimethyl sulfoxide (DMSO) at the concentrations of 10 mM and then diluted with Tris buffer to give the final concentration donor solution at 300 µM and 5% DMSO. The assay procedure was initiated by filling each well of the microtiter plate (MultiScreen, catalogue no. MATRNPS50, Millipore Corporation, Bedford, MA, USA) with 300 μL of each donor drug solution. Carefully, and avoiding the pipette tip contact with the filter, the hydrophobic filter (0.45 μm) of each acceptor well of the 96-well microfilter plate (MultiScreen-IP, catalogue no. MAIPNTR10, Millipore Corporation, Bedford, MA, USA) was adsorbed with 6 μL of the artificial lipid solution which was composed of 2% of L-α-phosphatidylcholine from soybean dissolved, by sonication, in n-dodecane. Immediately after this application, 150 μL of Tris buffer containing 5% DMSO was added to the receiving well. The receiving well was mounted on the donor plate, keeping the underside of the membrane in contact with the donor solution. The assembled donor–acceptor plates were incubated under constant stirring (3 g) at 25 °C for approximately 16 h. Subsequently, the quantity of each compound presented at the receptor solution (150 μL) was determined by UV/VIS spectrophotometrically.

[4] = Cytotoxicity against mammalian cells (MTT); type: cell-based, Murine; conditions: mouse, NCTC clone L929 cells
Protocol: Rhesus monkey kidney cells (LLC-MK2-ATCC CCL 7) were used for the maintenance of trypomastigotes of T. cruzi (Y strain) using RPMI-1640 medium supplemented with 2% fetal bovine serum (FBS). The cells and parasites were kept at 37 °C in a humidified atmosphere containing 5% CO2. Peritoneal macrophages, used in the experiments of anti-amastigote assay, were obtained by washing the peritoneal cavity of BALB/c mice, with RPMI-1640 medium supplemented with 10% FBS and kept at 37 °C in a 5% CO2 humidified incubator. Murine conjunctive cells (NCTC clone 929, ATCC) and LLC-MK2 were kept in RPMI-1640 supplemented with 10% FBS at the same conditions described above.
NCTC cells-clone L929 (6 × 10^4 cells/well) were seeded and incubated with tested compounds (200–1.56 µM) for 48 h at 37 °C in a 5% CO2 humidified incubator. Cytotoxic concentration (CC50) was determined by MTT assay. Optical density was determined in FilterMax F5 (Molecular Devices) at 570 nm. Selectivity Index (SI) was determined using the following ratio: CC50 against NCTC cells/IC50 against parasites.
as §2

PAMPA-BBB model = type: in vitro ADME
Protocol: The methodology herein applied was similar to that described in the previous section, however with the purpose of assessing the permeability of the compounds through the blood brain barrier (BBB). Thus, stock solutions (10 mM) of each test compound were prepared in DMSO and diluted with phosphate buffered saline (PBS) at pH 7.4. The final concentration of donor solutions was 300 μM and DMSO of 5%. Artificial membrane lipid solutions were prepared daily by dissolving, in n-dodecane, the porcine brain lipid extracted as described[40] at the final concentration of 2% (m/v). PAMPA procedure was similar to that described in the previous section although, in PAMPA-BBB, the donor and acceptor solutions were prepared using phosphate buffer saline (PBS) at pH 7.4 and the Papp was obtained through the equation previously reported.

T. cruzi trypomastigotes [5] = test: Mitochondrial membrane potential, JC-1 flow cytometry; type: cell-based, Trypanosoma cruzi; conditions: at IC50, 2 h
Protocol: The ΔΨm were analyzed by flow cytometry (Attune NxT flow cytometer - ThermoFisher) with the probe 5,5′,6,6′-tetrachloro-1,1′,3,3′-tetraethylbenzimidazole carbocyanide iodide (JC-1, ThermoFisher). The ratio between red/green fluorescence intensities (BL-2/BL-1; 590 nm/530 nm) were calculated[45],[46]. […] The parasites were incubated in the dark for 10 min at 37 °C and washed in HBSS + Glu to eliminate the non-internalized dye. As internal controls of the assay were used: (i) non-treated cells and (ii) trypomastigotes treated with 100 μM CCCP.

T. cruzi trypomastigotes [6] = test: Reactive oxygen species (ROS) generation, H2DCFDA probe; type: cell-based, Trypanosoma cruzi; conditions: at IC50, 1 h of treatment
Protocol: After, H2DCFDA probe (Molecular Probes) was added (5 µM) and incubated by 15 min[44]. The fluorescence intensity was measure using a fluorimetric microplate reader (FilterMax F5 Multi-Mode, Molecular Devices) with excitation and emission wavelengths of 485 and 520 nm, respectively. Azide (10 mM) was used as positive control and untreated parasites were used as negative control.

C/C=C/c1cc(OC)c2c(c1)[C@H](C)[C@@H](c1ccc(OC)c(OC)c1)O2 [1a, (2S,3 S)-2-(3,4-dimethoxyphenyl)-7-methoxy-3-methyl-5-[(E)-prop-1-enyl]-2,3-dihydrobenzo-furan]
IC50 [1]: > 100 µM | IC50 [2]: 28 ± 10.2 µM | Papp at 16 h, 300 µM ([3]; PAMPA): 0.42 ×10⁻⁶ cm/s | CC50 at 48 h [4]: > 200 µM | Papp at 16 h, 300 µM (PAMPA-BBB model; PAMPA, pH 7.4): 4.26 ×10⁻⁶ cm/s

C/C=C/c1cc(OC)c2c(c1)[C@H](C)[C@@H](c1ccc(OC(C)=O)c(OC)c1)O2 [1b, [2-methoxy-4-[(2S,3 S)-7-methoxy-3-methyl-5-[(E)-prop-1-enyl]-2,3-dihydrobenzofuran-2-yl]phenyl] acetate]
IC50 [1]: > 100 µM | IC50 [2]: 17.9 ± 2.9 µM | Papp at 16 h, 300 µM ([3]; PAMPA): 1.02 ×10⁻⁶ cm/s | CC50 at 48 h [4]: 67.2 ± 24.6 µM | Papp at 16 h, 300 µM (PAMPA-BBB model; PAMPA, pH 7.4): 0.34 ×10⁻⁶ cm/s

C=CCOc1ccc([C@H]2Oc3c(OC)cc(/C=C/C)cc3[C@@H]2C)cc1OC [1c, (2S,3 S)-2-(4-allyloxy-3-methoxy-phenyl)-7-methoxy-3-methyl-5-[(E)-prop-1-enyl]-2,3-dihydrobenzofuran]
IC50 [1]: > 100 µM | IC50 [2]: > 100 µM | Papp at 16 h, 300 µM ([3]; PAMPA): 0.43 ×10⁻⁶ cm/s | CC50 at 48 h [4]: > 200 µM | Papp at 16 h, 300 µM (PAMPA-BBB model; PAMPA, pH 7.4): 0.24 ×10⁻⁶ cm/s

COc1cc(C=O)ccc1OC(C)=O [2b, (4-formyl-2-methoxy-phenyl) acetate]
IC50 [1]: 5.6 ± 0.3 µM | IC50 [2]: > 100 µM | fraction unbound at 16 h, 300 µM [3]: < 0.1 | Papp at 16 h, 300 µM ([3]; PAMPA): 17.4 ×10⁻⁶ cm/s | CC50 at 48 h [4]: > 200 µM | Papp at 16 h, 300 µM (PAMPA-BBB model; PAMPA, pH 7.4): 4.7 ×10⁻⁶ cm/s

C=CCOc1ccc(C=O)cc1OC [2c, 4-allyloxy-3-methoxy-benzaldehyde]
IC50 [1]: > 100 µM | IC50 [2]: > 100 µM | Papp at 16 h, 300 µM ([3]; PAMPA): 1.6 ×10⁻⁶ cm/s | CC50 at 48 h [4]: > 200 µM | Papp at 16 h, 300 µM (PAMPA-BBB model; PAMPA, pH 7.4): 5.35 ×10⁻⁶ cm/s

C=CCc1cc(C=O)cc(OC)c1O [2d, 3-allyl-4-hydroxy-5-methoxy-benzaldehyde]
IC50 [1]: > 100 µM | IC50 [2]: > 100 µM | Papp at 16 h, 300 µM ([3]; PAMPA): 1.57 ×10⁻⁶ cm/s | CC50 at 48 h [4]: > 200 µM | Papp at 16 h, 300 µM (PAMPA-BBB model; PAMPA, pH 7.4): 1.25 ×10⁻⁶ cm/s

COc1ccc(CO)cc1OC [3a, (3,4-dimethoxyphenyl)methanol]
IC50 [1]: > 100 µM | IC50 [2]: > 100 µM | Papp at 16 h, 300 µM ([3]; PAMPA intestinal model, 300 µM donor, Tris buffer, 25 °C, 16 h, read-out: Papp GIT): 2.22 ×10⁻⁶ cm/s | CC50 at 48 h [4]: > 200 µM | Papp at 16 h, 300 µM (PAMPA-BBB model; PAMPA-BBB model, 300 µM donor, PBS pH 7.4, read-out: Papp BBB): 2.18 ×10⁻⁶ cm/s

C=CCOc1ccc(CO)cc1OC [3c, (4-allyloxy-3-methoxy-phenyl)methanol]
IC50 [1]: > 100 µM | IC50 [2]: > 100 µM | Papp at 16 h, 300 µM ([3]; PAMPA): 1.9 ×10⁻⁶ cm/s | CC50 at 48 h [4]: > 200 µM | Papp at 16 h, 300 µM (PAMPA-BBB model; PAMPA, pH 7.4): 4.74 ×10⁻⁶ cm/s

C=CCc1cc(CO)cc(OC)c1O [3d, 2-allyl-4-(hydroxymethyl)-6-methoxy-phenol]
IC50 [1]: > 100 µM | IC50 [2]: > 100 µM | mitochondrial membrane potential (T. cruzi trypomastigotes [5]): induced hyperpolarization of mitochondrial membrane potential | Papp at 16 h, 300 µM ([3]; PAMPA): 3.47 ×10⁻⁶ cm/s | CC50 at 48 h [4]: > 200 µM | ROS generation (T. cruzi trypomastigotes [6]): increased the reactive oxygen species (ROS) levels | Papp at 16 h, 300 µM (PAMPA-BBB model; PAMPA, pH 7.4): 3.47 ×10⁻⁶ cm/s

C/C=C/c1ccc(OC(C)=O)c(OC)c1 [4b, [2-methoxy-4-[(E)-prop-1-enyl]phenyl] acetate]
IC50 [1]: > 100 µM | IC50 [2]: 54.6 ± 10.2 µM | fraction unbound at 16 h, 300 µM [3]: < 0.1 | Papp at 16 h, 300 µM ([3]; PAMPA): 15 ×10⁻⁶ cm/s | CC50 at 48 h [4]: > 200 µM | Papp at 16 h, 300 µM (PAMPA-BBB model; PAMPA, pH 7.4): 1.32 ×10⁻⁶ cm/s
